Source: ChEMBL document CHEMBL5678818, “Discovery of potent SOS1 inhibitors that block RAS activation via disruption of the RAS-SOS1 interaction” (Proc Natl Acad Sci U S A, 2019)

Columns and labels:
[1] = tested on: Tyrosine-protein kinase ABL1 (Homo sapiens), P00519 [T315I]; assay: Inhibition of nonphosphorylated ABL1 T315I mutant (unknown origin) assessed as residual activity at 1000 nM by KINOMEscan analysis relative to control
[2] = molecular target: T1, Serine/threonine-protein kinase 36 (Homo sapiens) (UniProt Q9NRP7); assay: Inhibition of STK36 (unknown origin) assessed as residual activity at 1000 nM by KINOMEscan analysis relative to control
T1 sequence (whole entry): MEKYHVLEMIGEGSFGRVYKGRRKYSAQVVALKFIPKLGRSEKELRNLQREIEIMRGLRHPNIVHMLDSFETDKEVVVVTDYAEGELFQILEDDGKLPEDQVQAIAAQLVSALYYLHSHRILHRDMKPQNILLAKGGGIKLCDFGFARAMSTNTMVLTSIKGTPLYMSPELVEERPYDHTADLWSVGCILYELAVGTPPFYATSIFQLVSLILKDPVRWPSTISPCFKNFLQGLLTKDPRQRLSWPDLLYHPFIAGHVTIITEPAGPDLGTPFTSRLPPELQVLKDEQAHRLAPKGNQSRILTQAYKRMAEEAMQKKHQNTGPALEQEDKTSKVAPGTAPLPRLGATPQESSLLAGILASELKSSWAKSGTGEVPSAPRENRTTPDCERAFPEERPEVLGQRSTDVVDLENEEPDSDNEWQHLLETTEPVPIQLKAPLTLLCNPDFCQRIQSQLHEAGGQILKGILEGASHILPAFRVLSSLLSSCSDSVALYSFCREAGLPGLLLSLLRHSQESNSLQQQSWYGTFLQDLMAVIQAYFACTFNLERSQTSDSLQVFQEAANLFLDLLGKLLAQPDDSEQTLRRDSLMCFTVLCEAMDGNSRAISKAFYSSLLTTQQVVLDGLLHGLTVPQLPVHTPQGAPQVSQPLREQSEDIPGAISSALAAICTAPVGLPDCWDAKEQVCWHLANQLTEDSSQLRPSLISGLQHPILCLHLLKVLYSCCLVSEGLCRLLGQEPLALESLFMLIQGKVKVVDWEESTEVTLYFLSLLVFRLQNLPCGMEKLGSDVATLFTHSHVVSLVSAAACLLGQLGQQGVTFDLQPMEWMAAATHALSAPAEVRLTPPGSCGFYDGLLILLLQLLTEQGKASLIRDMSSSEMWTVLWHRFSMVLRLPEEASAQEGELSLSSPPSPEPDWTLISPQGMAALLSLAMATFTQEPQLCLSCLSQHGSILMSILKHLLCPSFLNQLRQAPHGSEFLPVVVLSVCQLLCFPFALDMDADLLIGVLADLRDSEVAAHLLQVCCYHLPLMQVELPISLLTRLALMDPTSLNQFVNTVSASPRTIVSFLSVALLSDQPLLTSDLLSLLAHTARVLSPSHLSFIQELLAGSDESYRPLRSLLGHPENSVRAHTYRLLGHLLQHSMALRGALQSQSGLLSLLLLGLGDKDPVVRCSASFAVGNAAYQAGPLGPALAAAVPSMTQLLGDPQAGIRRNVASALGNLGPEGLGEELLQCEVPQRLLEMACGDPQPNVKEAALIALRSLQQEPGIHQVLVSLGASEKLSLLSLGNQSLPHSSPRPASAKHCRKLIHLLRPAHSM

[3] = molecular target: Activin receptor type-1 (Homo sapiens) (UniProt Q04771); assay: Inhibition of ACVR1 (unknown origin) assessed as residual activity at 1000 nM by KINOMEscan analysis relative to control
Activin receptor type-1 (Homo sapiens), sequence (Q04771 whole entry, looked up): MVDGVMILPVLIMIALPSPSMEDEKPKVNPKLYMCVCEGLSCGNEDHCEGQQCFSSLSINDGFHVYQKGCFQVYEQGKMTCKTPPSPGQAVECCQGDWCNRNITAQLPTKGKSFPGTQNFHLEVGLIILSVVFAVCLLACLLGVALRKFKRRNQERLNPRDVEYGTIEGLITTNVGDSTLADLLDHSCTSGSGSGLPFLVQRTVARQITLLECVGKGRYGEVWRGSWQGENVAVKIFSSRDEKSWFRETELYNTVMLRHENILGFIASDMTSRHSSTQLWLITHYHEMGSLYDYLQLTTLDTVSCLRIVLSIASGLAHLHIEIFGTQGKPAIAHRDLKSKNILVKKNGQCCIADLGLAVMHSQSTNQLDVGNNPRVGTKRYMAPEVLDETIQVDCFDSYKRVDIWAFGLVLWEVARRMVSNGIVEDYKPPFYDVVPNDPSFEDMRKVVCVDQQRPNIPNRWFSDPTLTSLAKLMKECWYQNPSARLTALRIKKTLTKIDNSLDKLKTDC

[4] = molecular target: Cyclin-dependent kinase 9 (Homo sapiens) (UniProt P50750); assay: Inhibition of CDK9 (unknown origin) assessed as residual activity at 1000 nM by KINOMEscan analysis relative to control
Cyclin-dependent kinase 9 (Homo sapiens), sequence (P50750 whole entry): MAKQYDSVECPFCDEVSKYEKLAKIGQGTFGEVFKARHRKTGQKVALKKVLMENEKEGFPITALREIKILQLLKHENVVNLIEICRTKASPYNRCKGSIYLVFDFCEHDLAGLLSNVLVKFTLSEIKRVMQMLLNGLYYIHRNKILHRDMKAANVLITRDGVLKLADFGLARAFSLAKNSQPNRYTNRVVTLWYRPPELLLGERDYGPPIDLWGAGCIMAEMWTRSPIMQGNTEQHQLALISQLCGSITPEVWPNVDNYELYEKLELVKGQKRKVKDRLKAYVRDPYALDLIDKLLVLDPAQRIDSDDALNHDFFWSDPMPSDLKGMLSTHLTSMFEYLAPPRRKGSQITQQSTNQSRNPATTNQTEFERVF

[5] = molecular target: Serine/threonine-protein kinase PAK 5 (Homo sapiens) (UniProt Q9P286); assay: Inhibition of PAK7 (unknown origin) assessed as residual activity at 1000 nM by KINOMEscan analysis relative to control
Serine/threonine-protein kinase PAK 5 (Homo sapiens), sequence (Q9P286 whole entry, looked up): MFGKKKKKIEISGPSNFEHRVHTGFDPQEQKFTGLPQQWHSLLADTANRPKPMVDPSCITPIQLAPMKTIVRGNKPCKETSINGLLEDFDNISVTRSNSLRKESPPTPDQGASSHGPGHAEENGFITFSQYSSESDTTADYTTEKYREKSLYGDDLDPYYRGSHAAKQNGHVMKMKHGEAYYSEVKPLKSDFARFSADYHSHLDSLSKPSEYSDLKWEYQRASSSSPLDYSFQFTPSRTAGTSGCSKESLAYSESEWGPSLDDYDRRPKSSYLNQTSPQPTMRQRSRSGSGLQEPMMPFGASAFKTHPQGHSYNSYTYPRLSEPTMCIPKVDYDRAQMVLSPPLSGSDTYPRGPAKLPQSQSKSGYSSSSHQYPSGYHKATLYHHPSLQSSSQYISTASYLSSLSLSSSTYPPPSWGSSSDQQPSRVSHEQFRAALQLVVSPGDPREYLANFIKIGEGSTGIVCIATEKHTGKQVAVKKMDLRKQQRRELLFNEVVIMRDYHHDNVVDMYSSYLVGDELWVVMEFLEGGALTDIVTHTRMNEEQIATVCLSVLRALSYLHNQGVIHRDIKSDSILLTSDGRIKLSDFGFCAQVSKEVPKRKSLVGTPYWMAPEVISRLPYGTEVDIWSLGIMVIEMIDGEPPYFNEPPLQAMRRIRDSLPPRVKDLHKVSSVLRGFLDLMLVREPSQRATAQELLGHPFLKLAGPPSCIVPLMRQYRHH

[6] = molecular target: T2, Mitogen-activated protein kinase 13 (Homo sapiens) (UniProt O15264); assay: Inhibition of p38-delta (unknown origin) assessed as residual activity at 1000 nM by KINOMEscan analysis relative to control
T2 sequence (whole entry): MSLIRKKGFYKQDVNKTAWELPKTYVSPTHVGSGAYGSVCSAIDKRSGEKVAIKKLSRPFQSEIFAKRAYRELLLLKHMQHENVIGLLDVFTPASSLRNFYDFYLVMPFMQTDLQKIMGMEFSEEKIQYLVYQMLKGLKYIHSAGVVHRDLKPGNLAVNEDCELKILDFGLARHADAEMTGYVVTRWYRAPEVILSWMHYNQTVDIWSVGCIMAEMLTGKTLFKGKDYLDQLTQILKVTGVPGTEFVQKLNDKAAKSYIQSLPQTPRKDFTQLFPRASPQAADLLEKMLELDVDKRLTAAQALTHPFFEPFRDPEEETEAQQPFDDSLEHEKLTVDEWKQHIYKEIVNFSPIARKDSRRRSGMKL

[7] = molecular target: Mitogen-activated protein kinase 14 (Homo sapiens) (UniProt Q16539); assay: Inhibition of p38-alpha (unknown origin) assessed as residual activity at 1000 nM by KINOMEscan analysis relative to control
Mitogen-activated protein kinase 14 (Homo sapiens), sequence (Q16539 whole entry): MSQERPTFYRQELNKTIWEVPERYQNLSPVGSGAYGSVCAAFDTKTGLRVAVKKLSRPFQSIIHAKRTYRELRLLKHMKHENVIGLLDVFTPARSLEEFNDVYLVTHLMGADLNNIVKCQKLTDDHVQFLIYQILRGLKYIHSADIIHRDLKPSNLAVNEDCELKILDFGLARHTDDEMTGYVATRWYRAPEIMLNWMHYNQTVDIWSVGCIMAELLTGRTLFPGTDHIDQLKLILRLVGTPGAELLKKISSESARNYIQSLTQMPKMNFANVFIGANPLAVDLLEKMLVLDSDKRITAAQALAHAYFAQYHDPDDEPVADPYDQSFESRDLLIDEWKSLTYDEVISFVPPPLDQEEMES

[8] = molecular target: Ribosomal protein S6 kinase beta-1 (Homo sapiens) (UniProt P23443); assay: Inhibition of S6K1 (unknown origin) assessed as residual activity at 1000 nM by KINOMEscan analysis relative to control
Ribosomal protein S6 kinase beta-1 (Homo sapiens), sequence (P23443 whole entry, looked up): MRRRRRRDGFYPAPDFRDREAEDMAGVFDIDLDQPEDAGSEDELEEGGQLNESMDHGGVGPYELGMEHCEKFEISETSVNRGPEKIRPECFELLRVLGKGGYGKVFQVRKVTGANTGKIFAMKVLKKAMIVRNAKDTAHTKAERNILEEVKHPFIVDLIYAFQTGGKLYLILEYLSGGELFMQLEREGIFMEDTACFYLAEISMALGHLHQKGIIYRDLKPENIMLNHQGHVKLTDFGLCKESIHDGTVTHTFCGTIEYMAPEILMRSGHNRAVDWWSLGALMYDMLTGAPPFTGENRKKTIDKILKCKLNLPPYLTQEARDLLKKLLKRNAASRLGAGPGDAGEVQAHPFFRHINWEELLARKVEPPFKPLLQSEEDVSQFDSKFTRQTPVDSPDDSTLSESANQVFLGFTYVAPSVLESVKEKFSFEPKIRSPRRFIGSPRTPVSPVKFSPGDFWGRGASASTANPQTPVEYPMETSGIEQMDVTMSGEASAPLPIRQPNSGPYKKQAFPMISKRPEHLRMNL

Work on COc1cc2nc(C)nc(N[C@H](C)c3cccc(-c4cn[nH]c4)c3)c2cc1OC yielded an Activity [1] of 95%, an Activity [2] of 100% and an Activity [3] of 100%. For the same molecule, the Activity [4] was 95%, the Activity [5] was 96% and the Activity [6] was 90%. It also gave an Activity [7] of 98% and an Activity [8] of 78%.

COc1cc2ncnc(N[C@H](C)c3cccc4ccccc34)c2cc1OC was tested, and the Activity [1] was 100%, the Activity [2] was 100% and the Activity [3] was 100%. It also gave an Activity [4] of 95%, an Activity [5] of 100% and an Activity [6] of 100%. It also gave an Activity [7] of 58% and an Activity [8] of 91%.
